Test results: ChEMBL document CHEMBL1201862, “PubChem BioAssay data set” (2004)
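Protocol summary: plate cells (96-well), add compound at 5 concentrations, incubate 48 h, interpolate endpoints linearly. Here, GI50 denotes the concentration required for 50% inhibition of growth.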 Active and inactive are the calls of the source. Rule as the data show it: active = GI50 up to about 1.1 µM and inactive = higher.

Key:
Assay in all cases: NCI anticancer screen, dose series, 48 h
[1] = test system: RXF 631
[2] = test system: SNB-78
[3] = test system: M19-MEL
[4] = test system: XF498
[5] = test system: HOP-18
[6] = test system: DLD-1
[7] = test system: DMS-273
[8] = test system: BT-549
[9] = test system: MDA-N

SMILES	GI50 [1]	GI50 [2]	GI50 [3]	GI50 [4]	GI50 [5]	GI50 [6]	GI50 [7]	GI50 [8]	GI50 [9]
C[Si](C)(C)/C=C\CCCN1C(=O)CCC1=O	> 100 µM (inactive)	> 100 µM (inactive)	> 100 µM (inactive)	> 100 µM (inactive)					
CCOC(=O)/C(C#N)=C\Sc1ccccc1	15.7 µM (inactive)	28.1 µM (inactive)	22 µM (inactive)	28.1 µM (inactive)	> 100 µM (inactive)	18.1 µM (inactive)	16.3 µM (inactive)		
COc1cc(/C=N/N=C(\N)NO)cc(Cl)c1O		47.4 µM (inactive)	27.8 µM (inactive)		19.2 µM (inactive)	71.1 µM (inactive)			
CCCCN(CCCC)CC(C(=O)Nc1ccc([N+](=O)[O-])cc1[N+](=O)[O-])/C(C)=N\NC(=O)C[N+](C)(C)C (stereo not given)	69.2 µM (inactive)	97.7 µM (inactive)	> 100 µM (inactive)	39.3 µM (inactive)	78.9 µM (inactive)	69.3 µM (inactive)	15.9 µM (inactive)		
C=C1CC(CC)(CCN2C(=O)c3ccccc3C2=O)OC1=O (stereo not given)				13.4 µM (inactive)		17.9 µM (inactive)	11.4 µM (inactive)		
Fc1ccc(C2SCc3nc4ccccc4n32)cc1F (stereo not given)	28.8 µM (inactive)	32.2 µM (inactive)	28.6 µM (inactive)	25.4 µM (inactive)	60.4 µM (inactive)	34.2 µM (inactive)	26.5 µM (inactive)		
CN(CCO)c1nc2c(c(=O)[nH]1)CNCC2		> 100 µM (inactive)	80.2 µM (inactive)	> 100 µM (inactive)	> 100 µM (inactive)	> 100 µM (inactive)	> 100 µM (inactive)		
Cc1ccc(-c2nc3cc(F)c(N4CCN(C)CC4)cc3[nH]2)cc1								22.1 µM (inactive)	32.4 µM (inactive)
CCCCNC(=O)c1cc(S(=O)(=O)n2ccnc2O)c(SC)cc1Cl								> 100 µM (inactive)	> 100 µM (inactive)
O=P1(Cc2ccccc2)c2ccccc2-c2ccccc21								2.9 µM (inactive)	1.22 µM (inactive)
CC(=O)c1ccccc1NP(=O)(c1ccccc1)c1ccccc1								> 100 µM (inactive)	36.9 µM (inactive)
COc1ccccc1NC(=O)CC(=O)NNCC(=O)Nc1nc(-c2ccccc2)cs1		> 100 µM (inactive)	> 100 µM (inactive)		> 100 µM (inactive)	> 100 µM (inactive)	> 100 µM (inactive)		
O=C(CC1(O)C(=O)Nc2ccc([N+](=O)[O-])cc21)c1ccncc1 (stereo not given)	20.7 µM (inactive)	47.2 µM (inactive)	20.4 µM (inactive)	15.3 µM (inactive)	27.8 µM (inactive)	37.4 µM (inactive)			
Cc1nc2ccccc2c(=O)n1/N=C(\N=N\c1ccc(Cl)cc1)c1cccc(-c2ccco2)c1			34.1 µM (inactive)		21.1 µM (inactive)	27.9 µM (inactive)	27.9 µM (inactive)		
CCCCNc1nc(C#N)c(N)s1	> 100 µM (inactive)	> 100 µM (inactive)		> 100 µM (inactive)		> 100 µM (inactive)	> 100 µM (inactive)		
Cc1cc([N+](=O)[O-])ccc1NC(=O)C(=O)C(C(=O)c1ccccc1-c1ccccc1)C1OC(=O)c2ccccc21 (stereo not given)	4.75 µM (inactive)	17.9 µM (inactive)	12.9 µM (inactive)	5.93 µM (inactive)	14.2 µM (inactive)		4.99 µM (inactive)		
COc1cccc(C2c3cc4c(cc3OC(NNS(=O)(=O)c3ccc(C)cc3)C2C)OCO4)c1O (stereo not given)								19.7 µM (inactive)	24.5 µM (inactive)
CC(c1ccccc1)C(O)S(=O)(=O)O (stereo not given)	> 100 µM (inactive)	> 100 µM (inactive)	> 100 µM (inactive)	> 100 µM (inactive)	> 100 µM (inactive)		> 100 µM (inactive)		
C1CC[N+]23CCCC[N+]2(C1)CCCC3 (stereo not given)		> 100 µM (inactive)	> 100 µM (inactive)			> 100 µM (inactive)			
O=C(O)c1cc2c(s1)C(=O)c1sccc1C2=O		0.264 µM (active)	1.24 µM (inactive)	20.9 µM (inactive)	5.52 µM (inactive)	14.4 µM (inactive)	10.9 µM (inactive)	1.91 µM (inactive)	0.769 µM (active)
N/C(S)=N/N=C/c1cc(CN2CCOCC2)c(N)cn1								78.5 µM (inactive)	56.1 µM (inactive)
O=C(O)CCc1nc(-c2ccccc2)c(-c2ccccc2)o1 [OXAPROZIN]								> 100 µM (inactive)	> 100 µM (inactive)
O=C1c2ccc(O)c(O)c2C(=O)c2c(O)ccc(O)c21 [QUINALIZARIN]		41.3 µM (inactive)	33.9 µM (inactive)			32.5 µM (inactive)	25.2 µM (inactive)		
O[C@H]1[C@H]2[C@H](O)CCCN2C[C@H]1O [TRIDOLGOSIR]		> 100 µM (inactive)	> 100 µM (inactive)	> 100 µM (inactive)	> 100 µM (inactive)	> 100 µM (inactive)	> 100 µM (inactive)		
